# Measured values published in PubChem BioAssay AID1963969 (Molecular Pharmacology Branch, DTP, NCI, 2024).
# Tested on: 817829-284-R-J1-PDC multi-cell spheroid viability
# Assay: Anticancer human tumor 817829-284-R-J1-PDC patient-derived colon adenocarcinoma cell line growth inhibition [PI3K]
# Settings: for viability, T/C: stronger effect = lower value
# In short: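 Spheroid viability read-out. Co-cultures contained the tumor line plus HUVEC and human MSCs. Each agent was paired with a PI3K inhibitor (inavolisib, alpelisib, duvelisib, copanlisib) across half-log dilutions starting at clinical Cmax, or at 10 microM when Cmax was unknown.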
# [1] = curve of first compound, second compound 0.00316 µM
# [2] = curve of first compound, second compound 0.01 µM
# [3] = curve of first compound, second compound 0.0316 µM
# [4] = curve of first compound, second compound 0.1 µM
# [5] = curve of first compound, second compound 0.316 µM
# [6] = curve of first compound, second compound 1 µM
# [7] = second compound 0.00316 µM, first compound 0.0316 µM
# [8] = second compound 0.00316 µM, first compound 0.1 µM
# [9] = second compound 0.01 µM, first compound 0.0316 µM
# [10] = second compound 0.01 µM, first compound 0.1 µM
# [11] = second compound 0.0316 µM, first compound 0.0316 µM
# [12] = second compound 0.0316 µM, first compound 0.1 µM
# [13] = second compound 0.1 µM, first compound 0.0316 µM
# [14] = second compound 0.1 µM, first compound 0.1 µM
# [15] = second compound 0.316 µM, first compound 0.0316 µM
# [16] = second compound 0.316 µM, first compound 0.1 µM
# [17] = second compound 1 µM, first compound 0.0316 µM
# [18] = second compound 1 µM, first compound 0.1 µM
# 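Note: spheroids exposed to agents for seven days before readout.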
# 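Throughout, for viability, T/C: percent of vehicle DMSO control viability which is 100%.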
compound,measurement,setting,value
CNC(=O)c1ccc(N2C(=S)N(c3ccc(C#N)c(C(F)(F)F)c3)C(=O)C2(C)C)cc1F + CC(Nc1ccc2c(c1)OCCn1cc(N3C(=O)OCC3C(F)F)nc1-2)C(N)=O,IC50,[1],> 10000 nM
same,IC50,[2],> 10000 nM
same,IC50,[3],> 10000 nM
same,IC50,[4],4180 nM
same,IC50,[5],3370 nM
same,IC50,[6],< 31.6 nM
same,"viability, T/C",[7],57.7%
same,"viability, T/C",[8],88.8%
same,"viability, T/C","second compound 0.00316 µM, first compound 0.316 µM",109%
same,"viability, T/C","second compound 0.00316 µM, first compound 1 µM",75.6%
same,"viability, T/C","second compound 0.00316 µM, first compound 3.16 µM",61.9%
same,"viability, T/C","second compound 0.00316 µM, first compound 10 µM",50.9%
same,"viability, T/C",[9],86.1%
same,"viability, T/C",[10],77.6%
same,"viability, T/C","second compound 0.01 µM, first compound 0.316 µM",89.1%
same,"viability, T/C","second compound 0.01 µM, first compound 1 µM",70.7%
same,"viability, T/C","second compound 0.01 µM, first compound 3.16 µM",60.5%
same,"viability, T/C","second compound 0.01 µM, first compound 10 µM",71.4%
same,"viability, T/C",[11],70.1%
same,"viability, T/C",[12],79.2%
same,"viability, T/C","second compound 0.0316 µM, first compound 0.316 µM",87.5%
same,"viability, T/C","second compound 0.0316 µM, first compound 1 µM",56.7%
same,"viability, T/C","second compound 0.0316 µM, first compound 3.16 µM",67.1%
same,"viability, T/C","second compound 0.0316 µM, first compound 10 µM",54.6%
same,"viability, T/C",[13],56.5%
same,"viability, T/C",[14],53.4%
same,"viability, T/C","second compound 0.1 µM, first compound 0.316 µM",65.9%
same,"viability, T/C","second compound 0.1 µM, first compound 1 µM",48.9%
same,"viability, T/C","second compound 0.1 µM, first compound 3.16 µM",61.6%
same,"viability, T/C","second compound 0.1 µM, first compound 10 µM",27.3%
same,"viability, T/C",[15],46.8%
same,"viability, T/C",[16],61.8%
same,"viability, T/C","second compound 0.316 µM, first compound 0.316 µM",58%
same,"viability, T/C","second compound 0.316 µM, first compound 1 µM",53.5%
same,"viability, T/C","second compound 0.316 µM, first compound 3.16 µM",51%
same,"viability, T/C","second compound 0.316 µM, first compound 10 µM",32.8%
same,"viability, T/C",[17],32.4%
same,"viability, T/C",[18],40.7%
same,"viability, T/C","second compound 1 µM, first compound 0.316 µM",44.9%
same,"viability, T/C","second compound 1 µM, first compound 1 µM",45.9%
same,"viability, T/C","second compound 1 µM, first compound 3.16 µM",41.4%
same,"viability, T/C","second compound 1 µM, first compound 10 µM",20.6%
Cn1ncnc1[C@H]1c2n[nH]c(=O)c3cc(F)cc(c23)N[C@@H]1c1ccc(F)cc1 + CC(Nc1ccc2c(c1)OCCn1cc(N3C(=O)OCC3C(F)F)nc1-2)C(N)=O,IC50,[1],> 100 nM
same,IC50,[2],75 nM
same,IC50,[3],10 nM
same,IC50,[4],47.7 nM
same,IC50,[5],12.1 nM
same,IC50,[6],< 0.316 nM
same,"viability, T/C","second compound 0.00316 µM, first compound 0.000316 µM",95.4%
same,"viability, T/C","second compound 0.00316 µM, first compound 0.001 µM",58.2%
same,"viability, T/C","second compound 0.00316 µM, first compound 0.00316 µM",104%
same,"viability, T/C","second compound 0.00316 µM, first compound 0.01 µM",35%
same,"viability, T/C",[7],71.1%
same,"viability, T/C",[8],53%
same,"viability, T/C","second compound 0.01 µM, first compound 0.000316 µM",75.1%
same,"viability, T/C","second compound 0.01 µM, first compound 0.001 µM",66%
same,"viability, T/C","second compound 0.01 µM, first compound 0.00316 µM",75%
same,"viability, T/C","second compound 0.01 µM, first compound 0.01 µM",68.3%
same,"viability, T/C",[9],70.2%
same,"viability, T/C",[10],43.3%
same,"viability, T/C","second compound 0.0316 µM, first compound 0.000316 µM",81.7%
same,"viability, T/C","second compound 0.0316 µM, first compound 0.001 µM",101%
same,"viability, T/C","second compound 0.0316 µM, first compound 0.00316 µM",46.9%
same,"viability, T/C","second compound 0.0316 µM, first compound 0.01 µM",65%
same,"viability, T/C",[11],53.5%
same,"viability, T/C",[12],43.6%
same,"viability, T/C","second compound 0.1 µM, first compound 0.000316 µM",65.6%
same,"viability, T/C","second compound 0.1 µM, first compound 0.001 µM",52.2%
same,"viability, T/C","second compound 0.1 µM, first compound 0.00316 µM",60.3%
same,"viability, T/C","second compound 0.1 µM, first compound 0.01 µM",70.9%
same,"viability, T/C",[13],43%
same,"viability, T/C",[14],46.6%
same,"viability, T/C","second compound 0.316 µM, first compound 0.000316 µM",40.1%
same,"viability, T/C","second compound 0.316 µM, first compound 0.001 µM",65.8%
same,"viability, T/C","second compound 0.316 µM, first compound 0.00316 µM",61.2%
same,"viability, T/C","second compound 0.316 µM, first compound 0.01 µM",39.4%
same,"viability, T/C",[15],49.8%
same,"viability, T/C",[16],33.3%
same,"viability, T/C","second compound 1 µM, first compound 0.000316 µM",31.9%
same,"viability, T/C","second compound 1 µM, first compound 0.001 µM",60.9%
same,"viability, T/C","second compound 1 µM, first compound 0.00316 µM",43.1%
same,"viability, T/C","second compound 1 µM, first compound 0.01 µM",42.3%
same,"viability, T/C",[17],36.7%
same,"viability, T/C",[18],20.8%
CC(Cn1ccc(-c2ccc(C#N)c(Cl)c2)n1)NC(=O)c1cc(C(C)O)[nH]n1 (stereo not given),IC50,curve of compound,> 10000 nM
